# Assay results: ChEMBL document CHEMBL1137950, “Studies on 1-O-acetylbritannilactone and its derivative, (2-O-butyloxime-3-phenyl)-propionyl-1-O-acetylbritannilactone ester” (2004)
# How the values were obtained:
# [1] = system: Bel-7402; assay: Compound was tested for its cytotoxic activity against human Bel-7402 Hepatocellular carcinoma cell line; format: functional; conditions: read-out: ID50 (the source's name)
# [2] = system: HL-60; assay: Compound was tested for its cytotoxic activity against human HL-60 promyelocytic leukemia cell line; format: functional; conditions: read-out: ID50 (the source's name)
Structure (SMILES),IC50 [1] [µg/mL],IC50 [2] [µg/mL]
C=C1C(=O)O[C@@H]2CC(C)=C([C@@H](C)CCCOC(C)=O)[C@H](O)[C@H]12,15.6,18.4
C=C1C(=O)O[C@@H]2CC(C)=C([C@@H](C)CCCOC(C)=O)[C@H](OC(=O)/C(Cc3ccccc3)=N/OCCCC)[C@H]12,7.2,4.3
